Holding throughout (type): functional, cell-based
One assay deals with HeLa. As to the kind of experiment: Cytotoxicity against human HeLa cells after 48 hrs by MTT assay.
For the next assay, the system named is A549. As to the kind of experiment: Cytotoxicity against human A549 cells after 48 hrs by MTT assay. As to conditions: A549, 48 h.
The test system of a further assay is DU-145. As to the kind of experiment: Cytotoxicity against human DU145 cells after 48 hrs by MTT assay. As to conditions: DU-145, 48 h.

As to `COc1ccc(-n2nc(C)c3c(=O)oc4ccccc4c32)cc1`, the IC50 is 190 µM with HeLa, 27 µM in the assay with A549 and 175 µM in the assay on DU-145.

With `Cc1nn(-c2ccc(Cl)cc2)c2c1c(=O)oc1ccccc12`, the results for the IC50 in the assay on HeLa, with A549 and in the assay with DU-145 were 83 µM, 136 µM and 121 µM, respectively.

Take `COC(=O)c1c(-c2cc3ccccc3oc2=O)nn(-c2cccc(Cl)c2)c1C(=O)OC`: the results for the IC50 in the assay on HeLa, with A549 and in the assay with DU-145 were 76 µM, 30 µM and 32 µM, respectively.

`Cc1nn(-c2cccc(F)c2)c2c1c(=O)oc1ccccc12`: the results for the IC50 with HeLa, with A549 and in the assay with DU-145 were 276 µM, 125 µM and 134 µM, respectively.

Turning to `Cc1nn(-c2ccc(Br)cc2)c2c1c(=O)oc1ccccc12`, the half-maximal inhibitory concentration (IC50) with HeLa stood at 130 µM; in the assay on A549, 130 µM; in the assay with DU-145 it was 53 µM.

With `COc1ccc2oc(=O)c3c(C)nn(-c4ccccc4)c3c2c1`, the IC50 with HeLa was found to be 115 µM; in the assay with A549, 150 µM; with DU-145, 150 µM.

In the case of `O=c1oc2ccccc2c2c1cnn2-c1ccccc1`, the values for the IC50 in the assay with HeLa, in the assay on A549 and with DU-145 were 165 µM, 175 µM and 125 µM, respectively.

For `Cc1cccc(-n2ncc3c(=O)oc4ccccc4c32)c1`, the figures for the half-maximal inhibitory concentration (IC50) in the assay with HeLa, in the assay with A549 and in the assay on DU-145 were 135 µM, 160 µM and 100 µM, respectively.

Regarding `O=c1oc2ccccc2c2c1cnn2-c1cccc(Cl)c1`, the results for the half-maximal inhibitory concentration (IC50) in the assay on HeLa, in the assay with A549 and in the assay with DU-145 were 110 µM, 110 µM and 60 µM, respectively.

As to `Cc1ccc2oc(=O)c3cnn(-c4ccccc4)c3c2c1`, the results for the IC50 in the assay with HeLa, in the assay on A549 and in the assay on DU-145 were 192 µM, 125 µM and 110 µM, respectively.

Regarding `Cc1cccc(-n2ncc3c(=O)oc4ccc(C)cc4c32)c1`, the half-maximal inhibitory concentration (IC50) in the assay on HeLa is 150 µM; in the assay on A549, 145 µM; in the assay with DU-145, 130 µM.

With `Cc1ccc2oc(=O)c3cnn(-c4cccc(Cl)c4)c3c2c1`, the figures for the IC50 in the assay on HeLa, in the assay on A549 and in the assay with DU-145 were 120 µM, 150 µM and 105 µM, respectively.

With `CCOC(=O)c1c(-c2cc3ccccc3oc2=O)nn(-c2ccc(C)c(C)c2)c1C(=O)OCC`, the results for the IC50 in the assay with HeLa, in the assay on A549 and in the assay on DU-145 were 50 µM, 52 µM and 40 µM, respectively.

For `CCOC(=O)c1c(-c2cc3ccccc3oc2=O)nn(-c2ccc(OC)cc2)c1C(=O)OCC`, the half-maximal inhibitory concentration (IC50) was 90 µM in the assay on HeLa, 86 µM in the assay on A549 and 39 µM with DU-145.

Turning to `CCOC(=O)c1c(-c2cc3ccccc3oc2=O)nn(-c2cccc(Cl)c2)c1C(=O)OCC`, the 50% inhibitory concentration (IC50) came out at 22 µM in the assay with HeLa, 28 µM in the assay on A549 and 35 µM in the assay with DU-145.

As for `CCOC(=O)c1c(-c2cc3ccccc3oc2=O)nn(-c2cccc(F)c2)c1C(=O)OCC`, the IC50 with HeLa came to 68 µM; in the assay with A549 it was 59 µM; in the assay on DU-145 it was 32 µM.

On to `COC(=O)c1c(-c2cc3ccccc3oc2=O)nn(-c2cccc(F)c2)c1C(=O)OC`, for which the figures for the IC50 with HeLa, in the assay with A549 and in the assay on DU-145 were 76 µM, 50 µM and 37 µM, respectively.

Take `CCOC(=O)c1c(-c2cc3ccccc3oc2=O)nn(-c2ccc(Cl)cc2)c1C(=O)OCC`: the IC50 amounted to 87 µM with HeLa, 35 µM in the assay on A549 and 26 µM in the assay with DU-145.

For `CCOC(=O)c1c(-c2cc3ccccc3oc2=O)nn(-c2ccc(Br)cc2)c1C(=O)OCC`, the IC50 came out at 250 µM in the assay with HeLa, 100 µM in the assay with A549 and 61 µM with DU-145.

Consider `COC(=O)c1c(-c2cc3ccccc3oc2=O)nn(-c2ccc(Br)cc2)c1C(=O)OC`, for which the half-inhibitory concentration (IC50) with HeLa worked out at 120 µM; in the assay with A549 it was 165 µM; with DU-145, 93 µM.

With `CCOC(=O)c1c(-c2cc3cc(OC)ccc3oc2=O)nn(-c2ccccc2)c1C(=O)OCC`, the values for the concentration for half-maximal inhibition (IC50) in the assay with HeLa, in the assay on A549 and in the assay with DU-145 were 145 µM, 35 µM and 27 µM, respectively.

As to `CCOC(=O)c1c(-c2cc3cc(OC)ccc3oc2=O)nn(-c2cccc(C)c2)c1C(=O)OCC`, the IC50 in the assay on HeLa amounted to 155 µM; in the assay on A549, 102 µM; with DU-145 it was 31 µM.

As to `CCOC(=O)c1c(-c2cc3cc(OC)ccc3oc2=O)nn(-c2cccc(Cl)c2)c1C(=O)OCC`, the IC50 with HeLa worked out at 160 µM; in the assay on A549 it was 148 µM; in the assay on DU-145 it was 29 µM.

Regarding `CCOC(=O)c1c(-c2cc3ccc(OC)cc3oc2=O)nn(-c2ccccc2)c1C(=O)OCC`, the IC50 worked out at 140 µM with HeLa, 132 µM in the assay with A549 and 33 µM with DU-145.

With `CCOC(=O)c1c(-c2cc3ccc(OC)cc3oc2=O)nn(-c2cccc(C)c2)c1C(=O)OCC`, the IC50 came to 35 µM in the assay with HeLa, 171 µM in the assay on A549 and 35 µM with DU-145.

Regarding `CCOC(=O)c1c(-c2cc3ccc(OC)cc3oc2=O)nn(-c2cccc(Cl)c2)c1C(=O)OCC`, the concentration for half-maximal inhibition (IC50) in the assay on HeLa came to 205 µM; in the assay on A549 it was 221 µM; with DU-145, 38 µM.

As for `CCOC(=O)c1c(-c2cc3ccc(OCC=C(C)C)cc3oc2=O)nn(-c2ccccc2)c1C(=O)OCC`, the IC50 with HeLa was 130 µM; in the assay on A549 it was 136 µM; in the assay on DU-145 it was 75 µM.

Take `CCOC(=O)c1c(-c2cc3ccc(OCC=C(C)C)cc3oc2=O)nn(-c2cccc(C)c2)c1C(=O)OCC`: the IC50 is 150 µM with HeLa, 178 µM in the assay on A549 and 125 µM in the assay on DU-145.

In the case of `CCOC(=O)c1c(-c2cc3ccc(OCC=C(C)C)cc3oc2=O)nn(-c2cccc(Cl)c2)c1C(=O)OCC`, the values for the IC50 with HeLa, in the assay on A549 and in the assay on DU-145 were 110 µM, 163 µM and 139 µM, respectively.

`CCOC(=O)c1c(-c2cc3c(ccc4ccccc43)oc2=O)nn(-c2ccccc2)c1C(=O)OCC`: the IC50 with HeLa amounted to 120 µM; in the assay with A549, 136 µM; in the assay on DU-145 it was 80 µM.

As to `CCOC(=O)c1c(-c2cc3c(ccc4ccccc43)oc2=O)nn(-c2cccc(C)c2)c1C(=O)OCC`, the figures for the IC50 with HeLa, with A549 and with DU-145 were 155 µM, 179 µM and 259 µM, respectively.

With `CCOC(=O)c1c(-c2cc3c(ccc4ccccc43)oc2=O)nn(-c2cccc(Cl)c2)c1C(=O)OCC`, the concentration for half-maximal inhibition (IC50) in the assay on HeLa is 170 µM; in the assay on A549, 165 µM; in the assay on DU-145 it was 257 µM.

Turning to `CCOC(=O)c1c(-c2cc3cc4c(cc3oc2=O)OC(C)(C)CC4)nn(-c2ccccc2)c1C(=O)OCC`, the figures for the IC50 in the assay on HeLa, with A549 and with DU-145 were 125 µM, 189 µM and 209 µM, respectively.

As for `CCOC(=O)c1c(-c2cc3cc4c(cc3oc2=O)OC(C)(C)CC4)nn(-c2cccc(C)c2)c1C(=O)OCC`, the half-inhibitory concentration (IC50) in the assay with HeLa worked out at 105 µM; with A549, 175 µM; in the assay on DU-145 it was 67 µM.

As to `CCOC(=O)c1c(-c2cc3cc4c(cc3oc2=O)OC(C)(C)CC4)nn(-c2cccc(Cl)c2)c1C(=O)OCC`, the figures for the IC50 with HeLa, in the assay with A549 and with DU-145 were 145 µM, 146 µM and 74 µM, respectively.

`CCOC(=O)c1c(-c2c(Cl)c3ccccc3oc2=O)nn(-c2ccccc2)c1C(=O)OCC`: the results for the IC50 in the assay with HeLa, in the assay with A549 and with DU-145 were 100 µM, 34 µM and 48 µM, respectively.

Take `CCOC(=O)c1c(-c2c(Cl)c3ccccc3oc2=O)nn(-c2cccc(C)c2)c1C(=O)OCC`: the 50% inhibitory concentration (IC50) is 30 µM in the assay with HeLa, 36 µM in the assay with A549 and 32 µM with DU-145.

For `CCOC(=O)c1c(-c2c(Cl)c3ccccc3oc2=O)nn(-c2ccc(OC)cc2)c1C(=O)OCC`, the IC50 in the assay on HeLa was 27 µM; with A549, 18 µM; in the assay on DU-145, 25 µM.

For `CCOC(=O)c1c(-c2c(Cl)c3ccccc3oc2=O)nn(-c2cccc(Cl)c2)c1C(=O)OCC`, the 50% inhibitory concentration (IC50) in the assay on HeLa amounted to 40 µM; with A549, 38 µM; in the assay on DU-145 it was 24 µM.

Regarding `CCOC(=O)c1c(-c2c(Cl)c3ccccc3oc2=O)nn(-c2ccc(Br)cc2)c1C(=O)OCC`, the IC50 in the assay on HeLa came to 500 µM; with A549 it was 30 µM; in the assay on DU-145, 32 µM.

Take `CCOC(=O)c1c(-c2c(Cl)c3cc(C)ccc3oc2=O)nn(-c2ccccc2)c1C(=O)OCC`: the IC50 in the assay on HeLa worked out at 228 µM; in the assay with A549, 108 µM; in the assay on DU-145, 50 µM.

With `CCOC(=O)c1c(-c2c(Cl)c3cc(C)ccc3oc2=O)nn(-c2cccc(C)c2)c1C(=O)OCC`, the IC50 in the assay with HeLa was 115 µM; in the assay with A549 it was 115 µM; with DU-145, 103 µM.

Regarding `CCOC(=O)c1c(-c2c(Cl)c3cc(C)ccc3oc2=O)nn(-c2cccc(Cl)c2)c1C(=O)OCC`, the figures for the IC50 in the assay on HeLa, in the assay on A549 and with DU-145 were 125 µM, 128 µM and 156 µM, respectively.

For the molecule `CCOC(=O)c1c(-c2cc3ccccc3oc2=O)nn(-c2ccccc2)c1C(=O)OCC`, the results for the IC50 in the assay with HeLa, in the assay on A549 and in the assay on DU-145 were 100 µM, 100 µM and 57 µM, respectively.

Consider `COC(=O)c1c(-c2cc3ccccc3oc2=O)nn(-c2ccccc2)c1C(=O)OC`, for which the IC50 amounted to 35 µM in the assay with HeLa, 28 µM in the assay with A549 and 30 µM with DU-145.

Regarding `CCOC(=O)c1c(-c2cc3ccccc3oc2=O)nn(-c2cccc(C)c2)c1C(=O)OCC`, the figures for the IC50 in the assay on HeLa, with A549 and in the assay with DU-145 were 245 µM, 52 µM and 47 µM, respectively.

For the molecule `COC(=O)c1c(-c2cc3ccccc3oc2=O)nn(-c2cccc(C)c2)c1C(=O)OC`, the figures for the IC50 in the assay on HeLa, with A549 and with DU-145 were 45 µM, 51 µM and 35 µM, respectively.

Consider `Cc1nn(-c2cccc(Cl)c2)c2c1c(=O)oc1ccccc12`, for which the half-maximal inhibitory concentration (IC50) was 175 µM with HeLa, 85 µM with A549 and 139 µM in the assay with DU-145.

`Cc1nn(-c2ccccc2)c2c1c(=O)oc1ccccc12`: the IC50 with HeLa is 120 µM; with A549 it was 119 µM; in the assay on DU-145, 120 µM.

`Cc1cccc(-n2nc(C)c3c(=O)oc4ccccc4c32)c1`: the concentration for half-maximal inhibition (IC50) was found to be 154 µM in the assay on HeLa, 43 µM in the assay with A549 and 150 µM with DU-145.

In the case of `COc1cccc2c1C(=O)c1c(O)c3c(c(O)c1C2=O)C[C@@](O)(C(=O)CO)C[C@@H]3O[C@H]1C[C@H](N)[C@H](O)[C@H](C)O1` [DOXORUBICIN], the IC50 came out at 4.1 µM with HeLa, 4 µM with A549 and 6 µM in the assay on DU-145.

In the case of `COC(=O)Nc1nc2cc(C(=O)c3cccs3)ccc2[nH]1` [NOCODAZOLE], the half-inhibitory concentration (IC50) in the assay on HeLa was determined as 0.71 µM; in the assay on A549, 2.31 µM; with DU-145, 2.8 µM.

The values above are taken from ChEMBL document CHEMBL2401659, “Synthesis, anticancer activity and photophysical properties of novel substituted 2-oxo-2H-chromenylpyrazolecarboxylates” (Eur J Med Chem, 2013).
